According to ChEMBL document CHEMBL4385622, “Discovery of velpatasvir (GS-5816): A potent pan-genotypic HCV NS5A inhibitor in the single-tablet regimens Vosevi® and Epclusa®” (Bioorg Med Chem Lett, 2019):

Key:
[1] = Clearance in dog at 0.25 mg/kg, iv; format: ADME, organism-based, Canis lupus familiaris; settings: in vivo
[2] = Clearance in monkey at 0.5 mg/kg, iv; format: ADME, organism-based, Macaca mulatta; settings: rhesus monkey, in vivo
[3] = Fraction absorbed in dog; format: ADME, Canis lupus familiaris; settings: in vivo, read-out: Fabs
[4] = Fraction absorbed in cynomolgus monkey; format: ADME, Macaca fascicularis; settings: in vivo, read-out: Fabs
[5] = Fraction absorbed in rat; format: ADME; settings: in vivo, read-out: Fabs
[6] = Unbound drug level in rat plasma; format: ADME, cell-free
[7] = Unbound drug level in dog plasma; format: ADME, cell-free, Canis lupus familiaris
[8] = Unbound drug level in monkey plasma; format: ADME, cell-free, Macaca mulatta; settings: rhesus monkey
[9] = Unbound drug level in human plasma; format: ADME, cell-free
[10] = Clearance in rat at 2 mg/kg, iv; format: ADME, organism-based; settings: in vivo
[11] = Volume of distribution at steady state in rat at 2 mg/kg, iv; format: ADME, organism-based; settings: in vivo, read-out: Vdss
[12] = Volume of distribution at steady state in dog at 0.25 mg/kg, iv; format: ADME, organism-based, Canis lupus familiaris; settings: in vivo, read-out: Vdss
[13] = Volume of distribution at steady state in monkey at 0.5 mg/kg, iv; format: ADME, organism-based, Macaca mulatta; settings: rhesus monkey, in vivo, read-out: Vdss
[14] = Half life in rat at 2 mg/kg, iv; format: ADME, organism-based; settings: in vivo
[15] = Half life in dog at 0.25 mg/kg, iv; format: ADME, organism-based, Canis lupus familiaris; settings: in vivo
[16] = Half life in monkey at 0.5 mg/kg, iv; format: ADME, organism-based, Macaca mulatta; settings: rhesus monkey, in vivo
[17] = Half life in human at 100 mg, po; format: ADME; settings: in vivo
[18] = Oral bioavailability in rat at 2 mg/kg; format: ADME, organism-based; settings: in vivo
[19] = Oral bioavailability in dog at 0.5 mg/kg; format: ADME, organism-based, Canis lupus familiaris; settings: in vivo
[20] = Oral bioavailability in monkey at 1 mg/kg; format: ADME, organism-based, Macaca mulatta; settings: rhesus monkey, in vivo
[21] = Oral bioavailability in human at 100 mg; format: ADME, organism-based; settings: in vivo
[22] = Cytotoxicity against human HuH7 cells infected with HCV genotype 1a H77 assessed as reduction in cell viability incubated for 5 days by CellTiter-Glo luminescent assay; format: cell-based, Huh-7
[23] = Cytotoxicity against human HepG2 cells infected with HCV genotype 1a H77 assessed as reduction in cell viability incubated for 5 days by CellTiter-Glo luminescent assay; format: cell-based
[24] = Cytotoxicity against human PC3 cells infected with HCV genotype 1a H77 assessed as reduction in cell viability incubated for 5 days by CellTiter-Glo luminescent assay; format: cell-based, PC-3
[25] = Cytotoxicity against human MT4 cells infected with HCV genotype 1a H77 assessed as reduction in cell viability incubated for 5 days by CellTiter-Glo luminescent assay; format: cell-based
[26] = Cytotoxicity against human MRC5 cells infected with HCV genotype 1a H77 assessed as reduction in cell viability incubated for 5 days by CellTiter-Glo luminescent assay; format: cell-based
[27] = Cytotoxicity against human HuH7 cells infected with HCV genotype 1b Con-1 assessed as reduction in cell viability incubated for 5 days by CellTiter-Glo luminescent assay; format: cell-based, Huh-7
[28] = Cytotoxicity against human HepG2 cells infected with HCV genotype 1b Con-1 assessed as reduction in cell viability incubated for 5 days by CellTiter-Glo luminescent assay; format: cell-based
[29] = Cytotoxicity against human PC3 cells infected with HCV genotype 1b Con-1 assessed as reduction in cell viability incubated for 5 days by CellTiter-Glo luminescent assay; format: cell-based, PC-3
[30] = Cytotoxicity against human MT4 cells infected with HCV genotype 1b Con-1 assessed as reduction in cell viability incubated for 5 days by CellTiter-Glo luminescent assay; format: cell-based
[31] = Cytotoxicity against human MRC5 cells infected with HCV genotype 1b Con-1 assessed as reduction in cell viability incubated for 5 days by CellTiter-Glo luminescent assay; format: cell-based
[32] = Selectivity index, ratio of CC50 for human Huh7 cells infected with HCV genotype 1a H77 to EC50 for NS5A in HCV genotype 1a H77 infected in human HuH7 replicon cells; format: toxicity, cell-based; settings: read-out: Ratio CC50/EC50
[33] = Selectivity index, ratio of CC50 for human HepG2 cells infected with HCV genotype 1a H77 to EC50 for NS5A in HCV genotype 1a H77 infected in human HepG2 replicon cells; format: toxicity, cell-based; settings: read-out: Ratio CC50/EC50
[34] = Selectivity index, ratio of CC50 for human PC3 cells infected with HCV genotype 1a H77 to EC50 for NS5A in HCV genotype 1a H77 infected in human PC3 replicon cells; format: toxicity, cell-based; settings: read-out: Ratio CC50/EC50
[35] = Selectivity index, ratio of CC50 for human MT4 cells infected with HCV genotype 1a H77 to EC50 for NS5A in HCV genotype 1a H77 infected in human MT4 replicon cells; format: toxicity, cell-based; settings: read-out: Ratio CC50/EC50
[36] = Selectivity index, ratio of CC50 for human MRC5 cells infected with HCV genotype 1a H77 to EC50 for NS5A in HCV genotype 1a H77 infected in human MRC5 replicon cells; format: toxicity, cell-based; settings: read-out: Ratio CC50/EC50

COC[C@H]1C[C@@H](c2ncc(-c3ccc4c(c3)COc3cc5c(ccc6nc([C@@H]7CC[C@H](C)N7C(=O)[C@@H](NC(=O)OC)C(C)C)[nH]c65)cc3-4)[nH]2)N(C(=O)[C@H](NC(=O)OC)c2ccccc2)C1 [VELPATASVIR]
clearance [1]: 4.17 mL/min/kg | clearance [2]: 5 mL/min/kg | Fa [3]: 29% | Fa [4]: 37% | Fa [5]: 36% | Fu [6]: 0.2% | Fu [7]: 0.2% | Fu [8]: 0.4% | Fu [9]: 0.3% | clearance [10]: 15.7 mL/min/kg | Vd [11]: 1.61 L/kg | Vd [12]: 1.43 L/kg | Vd [13]: 1.6 L/kg | half-life [14]: 2.25 h | half-life [15]: 5.2 h | half-life [16]: 5.03 h | half-life [17]: 15.7 h | bioavailability [18]: 28% | bioavailability [19]: 25% | bioavailability [20]: 30% | bioavailability [21]: 50% | CC50 at 120 h [22]: > 44.4 µM | CC50 at 120 h [23]: > 44.4 µM | CC50 at 120 h [24]: > 44.4 µM | CC50 at 120 h [25]: > 44.4 µM | CC50 at 120 h [26]: > 44.4 µM | CC50 at 120 h [27]: > 44.4 µM | CC50 at 120 h [28]: > 44.4 µM | CC50 at 120 h [29]: > 44.4 µM | CC50 at 120 h [30]: > 44.4 µM | CC50 at 120 h [31]: > 44.4 µM | selectivity ratio [32]: > 4.9e+06 | selectivity ratio [33]: > 4.9e+06 | selectivity ratio [34]: > 4.9e+06 | selectivity ratio [35]: > 4.9e+06 | selectivity ratio [36]: > 4.9e+06
